PubChem BioAssay (NCI)
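These data come from cells grown in 96-well plates and exposed to compound for 48 hours at five concentrations. The concentration for 50% growth inhibition is given as GI50. Definition used: TGI = concentration required for complete inhibition of growth.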

What was measured:
Experiment in all cases: DTP human tumour cell line panel, 48 h
[1] = test system: HCT-116 colon
[2] = test system: SF-268 CNS
[3] = test system: UACC-62 melanoma
[4] = test system: EKVX NSCLC
[5] = test system: KM12 colon
[6] = test system: UO-31 renal
[7] = test system: HCC-2998 colon
[8] = test system: RXF 393 renal

OCC#Cc1ccccc1C#Cc1ccccc1
GI50 [1]: 15.3 µM
TGI [1]: 28.6 µM
GI50 [2]: 17.1 µM
TGI [2]: 35.3 µM
GI50 [3]: 14.8 µM
TGI [3]: 27.9 µM
GI50 [4]: 17.6 µM
TGI [4]: 34 µM
GI50 [5]: 10.8 µM
TGI [5]: 22.9 µM
GI50 [6]: 35.2 µM
TGI [6]: > 100 µM

N=Nc1c(OC(=O)Nc2cccc(Cl)c2)[nH]c2ccccc12
TGI [1]: 14.1 µM
TGI [2]: 27.9 µM
TGI [7]: 17.5 µM
TGI [3]: 21.1 µM
TGI [4]: 16.8 µM
TGI [5]: 14.3 µM
TGI [6]: 13.1 µM
TGI [8]: 26.1 µM

COc1cc2c3c(n(C)c(=O)c2cc1OC)-c1cc2c(cc1/C3=C\CCN)OCO2
GI50 [1]: < 0.024 µM
TGI [1]: 0.348 µM
GI50 [2]: 0.167 µM
TGI [2]: 16.6 µM
GI50 [3]: 0.185 µM
TGI [3]: 4.41 µM
GI50 [4]: 1.71 µM
TGI [4]: 13.5 µM
GI50 [5]: 0.426 µM
TGI [5]: 2.11 µM
GI50 [6]: 0.337 µM
TGI [6]: 8.9 µM
GI50 [8]: 0.823 µM
TGI [8]: 6.86 µM

CN(C(=O)c1ccc(C(F)(F)F)cc1)c1ccc(Oc2ccc3c(c2)cc(C(=O)N2CCN(Cc4ccc(OC(F)F)cc4)CC2)n3C)nc1
GI50 [1]: < 0.01 µM
TGI [1]: > 100 µM
GI50 [2]: > 100 µM
TGI [2]: > 100 µM
GI50 [7]: > 100 µM
TGI [7]: > 100 µM
GI50 [3]: 3.96 µM
TGI [3]: > 100 µM
GI50 [4]: < 0.01 µM
TGI [4]: > 100 µM
GI50 [5]: 35.9 µM
TGI [5]: > 100 µM
GI50 [6]: 4.22 µM
TGI [6]: > 100 µM
GI50 [8]: 49.2 µM
TGI [8]: > 100 µM

O=C(CSc1ccc(Cl)cc1)Nc1ccc(-c2nc3ccccc3s2)c(Cl)c1
GI50 [1]: 2.08 µM
TGI [1]: 5.45 µM
GI50 [2]: 3.24 µM
TGI [2]: 22.4 µM
GI50 [7]: 3.09 µM
TGI [7]: 16.3 µM
GI50 [3]: 2.77 µM
TGI [3]: 15.1 µM
GI50 [4]: 4.1 µM
TGI [4]: 40.3 µM
GI50 [5]: 3.66 µM
TGI [5]: > 100 µM
GI50 [6]: 2.29 µM
TGI [6]: 22.9 µM
GI50 [8]: 14.1 µM
TGI [8]: 55.8 µM

Cc1ccccc1S(=O)(=O)OC1NS(=O)(=O)c2ccccc21 (stereo not drawn)
TGI [1]: > 100 µM
TGI [2]: > 100 µM
TGI [7]: > 100 µM
TGI [3]: > 100 µM
TGI [4]: > 100 µM
TGI [5]: > 100 µM
TGI [6]: > 100 µM
TGI [8]: > 100 µM

O=c1c2sccc2n(CC2COc3ccccc3O2)c(=O)n1O (stereo not drawn)
GI50 [1]: 6.54 µM
TGI [1]: 29.2 µM
GI50 [2]: 13.6 µM
TGI [2]: > 100 µM
GI50 [7]: 7.6 µM
TGI [7]: > 100 µM
GI50 [3]: 14.6 µM
TGI [3]: 46.4 µM
GI50 [4]: 35.3 µM
TGI [4]: > 100 µM
GI50 [5]: 9.21 µM
TGI [5]: 86 µM
GI50 [6]: 16 µM
TGI [6]: 97.5 µM
GI50 [8]: 3 µM
TGI [8]: 9.7 µM

Cc1ccc(S(=O)(=O)Nc2ccccc2C(=O)c2ccc(C)c(C)c2)cc1
TGI [1]: > 100 µM
TGI [2]: > 100 µM
TGI [3]: > 100 µM
TGI [4]: > 100 µM
TGI [5]: > 100 µM
TGI [6]: > 100 µM
TGI [8]: > 100 µM

COc1cccc(-c2nc(-c3ccc(NC(=O)C(C)C)cc3)[nH]c2-c2ccnc(Br)c2)c1
GI50 [1]: 2.49 µM
TGI [1]: 7.8 µM
GI50 [2]: 4.07 µM
TGI [2]: > 100 µM
GI50 [7]: 2.03 µM
TGI [7]: 6.01 µM
GI50 [3]: 2.57 µM
TGI [3]: 7.99 µM
GI50 [4]: 2.43 µM
TGI [4]: 8.01 µM
GI50 [5]: 2.96 µM
TGI [5]: > 100 µM
GI50 [6]: 3.2 µM
TGI [6]: > 100 µM
GI50 [8]: 0.354 µM
TGI [8]: 1.46 µM

O=C(Nc1ccc(Cl)cc1)c1cccc(NC2=C(Cl)C(=O)N(Cc3ccccc3)C2=O)c1
GI50 [1]: 6.29 µM
TGI [1]: 19.7 µM
GI50 [2]: 11.6 µM
TGI [2]: 30.1 µM
GI50 [7]: 3.83 µM
TGI [7]: 20 µM
GI50 [3]: 11 µM
TGI [3]: 22.9 µM
GI50 [4]: 27.3 µM
TGI [4]: > 100 µM
GI50 [5]: 48.5 µM
TGI [5]: > 100 µM
GI50 [6]: 13 µM
TGI [6]: 30.4 µM

CC(=O)[C@@]12O[C@@H]1CC1C3CCC4=CC(O)CCC4(C)C3CCC12C (stereo partly drawn)
GI50 [1]: 31.7 µM
TGI [1]: > 100 µM
GI50 [2]: 83.5 µM
TGI [2]: > 100 µM
GI50 [3]: > 100 µM
TGI [3]: > 100 µM
GI50 [4]: > 100 µM
TGI [4]: > 100 µM
GI50 [5]: 24.7 µM
TGI [5]: > 100 µM
GI50 [6]: > 100 µM
TGI [6]: > 100 µM
GI50 [8]: 28.6 µM
TGI [8]: 65.6 µM

Cc1cccc(NC(=O)Cn2cnc3sc(C(=O)OC(C)C)c(C)c3c2=O)c1
GI50 [1]: 15.6 µM
TGI [1]: > 50 µM
GI50 [2]: 18.8 µM
TGI [2]: > 50 µM
GI50 [3]: 8.78 µM
TGI [3]: 24.3 µM
GI50 [4]: 7.51 µM
TGI [4]: 22.4 µM
GI50 [5]: 30.3 µM
TGI [5]: > 50 µM
GI50 [6]: > 50 µM
TGI [6]: > 50 µM
GI50 [8]: 7.1 µM
TGI [8]: 22.7 µM

O=C(/C=C/c1ccc(Cl)cc1)c1ccc(Nc2ccnc3cc(Cl)ccc23)cc1
GI50 [2]: > 84 µM
TGI [2]: > 100 µM
GI50 [7]: > 80.5 µM
TGI [7]: > 100 µM
GI50 [3]: > 100 µM
TGI [3]: > 100 µM
GI50 [4]: > 84.6 µM
TGI [4]: > 100 µM
GI50 [5]: 4.61 µM
TGI [5]: 44.3 µM
GI50 [6]: > 74.7 µM
TGI [6]: > 100 µM
GI50 [8]: 10.7 µM
TGI [8]: > 83.8 µM

CN1CCN(CCCn2c(=O)c3sc4ncccc4c3n3nnc(-c4ccccc4)c23)CC1
GI50 [1]: 5.23 µM
TGI [1]: 11.7 µM
GI50 [2]: 6.45 µM
TGI [2]: 13.2 µM
GI50 [7]: 6.77 µM
TGI [7]: 13.4 µM
GI50 [3]: 8.85 µM
TGI [3]: 16.1 µM
GI50 [4]: 6.47 µM
TGI [4]: 13.3 µM
GI50 [5]: 4.24 µM
TGI [5]: 10.7 µM
GI50 [6]: 5.1 µM
TGI [6]: 12 µM
GI50 [8]: 6.36 µM
TGI [8]: 13.4 µM

COc1ccc([C@H]2[C@@H](F)C(=O)N2c2cc(OC)c(OC)c(OC)c2)cc1F
GI50 [1]: 0.0325 µM
TGI [1]: > 100 µM
GI50 [2]: 0.324 µM
TGI [2]: > 100 µM
GI50 [7]: 0.406 µM
TGI [7]: > 100 µM
GI50 [4]: 0.202 µM
TGI [4]: > 100 µM
GI50 [5]: 0.0596 µM
TGI [5]: > 100 µM
GI50 [6]: 0.171 µM
TGI [6]: > 100 µM
GI50 [8]: 0.0398 µM
TGI [8]: 66 µM

COc1ccc(-c2nnc(COc3ccc(C(=O)/C=C/c4ccco4)cc3)o2)cc1
GI50 [1]: 1.82 µM
TGI [1]: 3.36 µM
GI50 [2]: 2.76 µM
TGI [2]: 8.25 µM
GI50 [7]: 2.32 µM
TGI [7]: 5.26 µM
GI50 [3]: 3.14 µM
TGI [3]: 11.2 µM
GI50 [5]: 1.75 µM
TGI [5]: 3.62 µM
GI50 [6]: 2.32 µM
TGI [6]: 6.69 µM
GI50 [8]: 1.87 µM
TGI [8]: 3.62 µM
